What follows are molecules tested against CDK2/Cyclin E1 (Homo sapiens (Human), UniProt P24941) (assay: CDK2/Cyclin E1 HTRF enzyme activity assay). Conditions: 1 mM ATP.
Format: biochemical
Procedure: Assays are conducted in white 384-well polystyrene plates in a final reaction volume of 8 μL. […] HTRF signals are read after 1 hour at room temperature on a PHERAstar FS plate reader (BMG Labtech). Data is analyzed with IDBS XLFit and GraphPad Prism 5.0 software using a three or four parameter dose response curve to determine IC50 for each compound.

Compound	IC50 [nM]
CCn1cc(CNCc2ccc(-n3cc(-c4nc(NC5CCN(S(C)(=O)=O)CC5)ncc4C#N)cn3)c(Cl)c2)cn1 [Example 194, 4-(1-(2-Chloro-4-((((1-ethyl-1H-pyrazol-4-yl)methyl)amino)methyl)phenyl)-1H-pyrazol-4-yl)-2-((1-(methylsulfonyl)piperidin-4-yl)amino)pyrimidine-5-carbonitrile]	< 50
CS(=O)(=O)N1CCC(Nc2ncc(C#N)c(-c3cnn(-c4ccc(CN[C@H]5C[C@H](O)C5)cc4Cl)c3)n2)CC1 [Example 161, 4-(1-(2-Chloro-4-((((1r,3r)-3-hydroxycyclobutyl)amino)methyl)phenyl)-1H-pyrazol-4-yl)-2-((1-(methylsulfonyl)piperidin-4-yl)amino)pyrimidine-5-carbonitrile]	< 50
COC(=O)N1CCC[C@H](NCc2ccc(-n3cc(-c4nc(NC5CCN(S(C)(=O)=O)CC5)ncc4C#N)cn3)c(Cl)c2)C1 [Example 167, Methyl (S)-3-((3-chloro-4-(4-(5-cyano-2-((1-(methylsulfonyl)piperidin-4-yl)amino)pyrimidin-4-yl)-1H-pyrazol-1-yl)benzyl)amino)piperidine-1-carboxylate]	< 50
Cc1nc(CN2CCN(C)CC2)ccc1-n1cc(-c2nc(NC3CCN(S(=O)(=O)c4cn(C)cn4)CC3)ncc2C(F)(F)F)cn1 [Example 252, N-(1-((1-Methyl-1H-imidazol-4-yl)sulfonyl)piperidin-4-yl)-4-(1-(2-methyl-6-((4-methylpiperazin-1-yl)methyl)pyridin-3-yl)-1H-pyrazol-4-yl)-5-(trifluoromethyl)pyrimidin-2-amine]	< 50
C[C@H]1C[C@H](Nc2ncc(C(F)(F)F)c(-c3cnn(C4CCOCC4)c3)n2)CCN1S(C)(=O)=O (racemic) [Example 21, (±)-N-((2S,4R)-2-Methyl-1-(methylsulfonyl)piperidin-4-yl)-4-(1-(tetrahydro-2H-pyran-4-yl)-1H-pyrazol-4-yl)-5-(trifluoromethyl)pyrimidin-2-amine]	< 50
CNCc1ccc(-n2cc(-c3nc(NC4CCN(S(C)(=O)=O)CC4)ncc3C(F)(F)F)cn2)c(Cl)c1 [Example 29, 4-(1-(2-Chloro-4-((methylamino)methyl)phenyl)-1H-pyrazol-4-yl)-V-(1-(methylsulfonyl)piperidin-4-yl)-5-(trifluoromethyl)pyrimidin-2-amine]	< 50
CCN1CCN(Cc2ccc(-n3cc(-c4nc(NC5CCN(S(=O)(=O)c6cn(C)cn6)CC5)ncc4C(F)(F)F)cn3)c(C)c2)CC1 [Example 235, 4-(1-(4-((4-Ethylpiperazin-1-yl)methyl)-2-methylphenyl)-1H-pyrazol-4-yl)-N-(1-((1-methyl-1H-imidazol-4-yl)sulfonyl)piperidin-4-yl)-5-(trifluoromethyl)pyrimidin-2-amine]	< 50
CCS(=O)(=O)N1CCC(Nc2ncc(C#N)c(-c3cnn(-c4ccc(CNC)cc4Cl)c3)n2)CC1 [Example 112, 4-(1-(2-Chloro-4-((methylamino)methyl)phenyl)-1H-pyrazol-4-yl)-2-((1-(ethylsulfonyl)piperidin-4-yl)amino)pyrimidine-5-carbonitrile]	< 50
Cc1nc(CNC(C)(C)C2CC2)ccc1-n1cc(-c2nc(NC3CCN(S(C)(=O)=O)CC3)ncc2C#N)cn1 [Example 263, 4-(1-(6-(((2-Cyclopropylpropan-2-yl)amino)methyl)-2-methylpyridin-3-yl)-1H-pyrazol-4-yl)-2-((1-(methylsulfonyl)piperidin-4-yl)amino)pyrimidine-5-carbonitrile]	< 50
CS(=O)(=O)N1CCC(Nc2ncc(C#N)c(-c3cnn(-c4ccc(CN[C@@H]5CCCC[C@H]5CO)cc4Cl)c3)n2)CC1 [Example 288]	< 50
C[C@@H]1CN(S(=O)(=O)c2ccccn2)CC[C@@H]1Nc1ncc(C(F)(F)F)c(-c2cnn(CC(C)(C)O)c2)n1 [Example 62, 2-Methyl-1-(4-(2-(((3R,4S)-3-methyl-1-(pyridin-2-ylsulfonyl)piperidin-4-yl)amino)-5-(trifluoromethyl)pyrimidin-4-yl)-1H-pyrazol-1-yl)propan-2-ol]	< 50
CC(C)(O)Cn1cc(-c2nc(NC3CCN(S(=O)(=O)CCCCN4CCCC4)CC3)ncc2C(F)(F)F)cn1 [Example 80, 2-Methyl-1-(4-(2-((1-((4-(pyrrolidin-1-yl)butyl)sulfonyl)piperidin-4-yl)amino)-5-(trifluoromethyl)pyrimidin-4-yl)-1H-pyrazol-1-yl)propan-2-ol]	< 50
[2H]C([2H])([2H])NCc1ccc(-n2cc(-c3nc(N[C@H]4CCN(S(=O)(=O)c5ccn(C)n5)C[C@H]4C)ncc3C#N)cn2)c(Cl)c1 [Example 147, 4-(1-(2-Chloro-4-(((methyl-d3)amino)methyl)phenyl)-1H-pyrazol-4-yl)-2-(((3R,4S)-3-methyl-1-((1-methyl-1H-pyrazol-3-yl)sulfonyl)piperidin-4-yl)amino)pyrimidine-5-carbonitrile]	< 50

Now from value to molecule:

IC50 [nM]	Compound
< 50	CS(=O)(=O)N1CCC(Nc2ncc(C#N)c(-c3cnn(-c4ccc(CN[C@H]5CC[C@H](O)CC5)cc4Cl)c3)n2)CC1 [Example 182, 4-(1-(2-Chloro-4-((((1r,4r)-4-hydroxycyclohexyl)amino)methyl)phenyl)-1H-pyrazol-4-yl)-2-((1-(methylsulfonyl)piperidin-4-yl)amino)pyrimidine-5-carbonitrile]
< 50	[2H]C([2H])([2H])NCc1ccc(-n2cc(-c3nc(N[C@H]4CCN(S(=O)(=O)C5CC5)C[C@H]4F)ncc3C#N)cn2)c(Cl)c1 [Example 145, 4-(1-(2-Chloro-4-(((methyl-d3)amino)methyl)phenyl)-1H-pyrazol-4-yl)-2-(((3R,4S)-1-(cyclopropylsulfonyl)-3-fluoropiperidin-4-yl)amino)pyrimidine-5-carbonitrile]
< 50	CC(C)(O)Cn1cc(-c2nc(NC3CCN(S(=O)(=O)CCCN4CCC(C#N)CC4)CC3)ncc2C(F)(F)F)cn1 [Example 76, 1-(3-((4-((4-(1-(2-Hydroxy-2-methylpropyl)-1H-pyrazol-4-yl)-5-(trifluoromethyl)pyrimidin-2-yl)amino)piperidin-1-yl)sulfonyl)propyl)piperidine-4-carbonitrile]
< 50	CC(C)(O)Cn1cc(-c2nc(N[C@H]3CCN(S(=O)(=O)CCCN4CCCCC4)C[C@H]3F)ncc2C(F)(F)F)cn1 [Example 204, 1-(4-(2-(((3R,4S)-3-Fluoro-1-((3-(piperidin-1-yl)propyl)sulfonyl)piperidin-4-yl)amino)-5-(trifluoromethyl)pyrimidin-4-yl)-1H-pyrazol-1-yl)-2-methylpropan-2-ol]
< 50	Cc1nc(CN2CCN(C(C)C)CC2)ccc1-n1cc(-c2nc(N[C@H]3CCN(S(=O)(=O)c4cn(C)cn4)C[C@H]3C)ncc2C(F)(F)F)cn1 [Example 257, 4-(1-(6-((4-Isopropylpiperazin-1-yl)methyl)-2-methylpyridin-3-yl)-1H-pyrazol-4-yl)-N-((3R,4S)-3-methyl-1-((1-methyl-1H-imidazol-4-yl)sulfonyl)piperidin-4-yl)-5-(trifluoromethyl)pyrimidin-2-amine]
< 50	C[C@@H]1CN(S(=O)(=O)C2CC2)CC[C@@H]1Nc1ncc(C(F)(F)F)c(-c2cnn([C@H]3C[C@@](C)(N)C3)c2)n1 [Example 47, 4-(1-((1s,3r)-3-Amino-3-methylcyclobutyl)-1H-pyrazol-4-yl)-N-((3R,4S)-1-(cyclopropylsulfonyl)-3-methylpiperidin-4-yl)-5-(trifluoromethyl)pyrimidin-2-amine]
< 50	CC(C)(O)Cn1cc(-c2nc(NC3CCN(S(=O)(=O)CCCN4CCC(O)CC4)CC3)ncc2C(F)(F)F)cn1 [Example 75, 1-(3-((4-((4-(1-(2-Hydroxy-2-methylpropyl)-1H-pyrazol-4-yl)-5-(trifluoromethyl)pyrimidin-2-yl)amino)piperidin-1-yl)sulfonyl)propyl)piperidin-4-ol]
< 50	CCS(=O)(=O)N1CCC(Nc2ncc(C#N)c(-c3cnn(-c4ccc(CN[C@H]5C[C@@](C)(O)C5)cc4Cl)c3)n2)CC1 [Example 192, 4-(1-(2-Chloro-4-((((1s,3s)-3-hydroxy-3-methylcyclobutyl)amino)methyl)phenyl)-1H-pyrazol-4-yl)-2-((1-(ethylsulfonyl)piperidin-4-yl)amino)pyrimidine-5-carbonitrile]
< 50	Cc1nc(CN2CCN(C(C)C)CC2)ccc1-n1cc(-c2nc(NC3CCN(S(=O)(=O)c4cn(C)cn4)CC3)ncc2C(F)(F)F)cn1 [Example 254, 4-(1-(6-((4-Isopropylpiperazin-1-yl)methyl)-2-methylpyridin-3-yl)-1H-pyrazol-4-yl)-N-(1-((1-methyl-1H-imidazol-4-yl)sulfonyl)piperidin-4-yl)-5-(trifluoromethyl)pyrimidin-2-amine]
< 50	CC(C)(O)Cn1cc(-c2nc(NC3CCN(S(=O)(=O)C4CCC(N5CCCC5)CC4)CC3)ncc2C(F)(F)F)cn1 (single isomer, unassigned) [91 (peak 1), 2-Methyl-1-(4-(2-((1-((4-(pyrrolidin-1-yl)cyclohexyl)sulfonyl)piperidin-4-yl)amino)-5-(trifluoromethyl)pyrimidin-4-yl)-1H-pyrazol-1-yl)propan-2-ol]
< 50	Cn1cnc(S(=O)(=O)N2CCC(Nc3ncc(C(F)(F)F)c(-c4cnn([C@H]5CC[C@H](O)CC5)c4)n3)CC2)c1 [Example 26, trans-4-(4-(2-((1-((1-Methyl-1H-imidazol-4-yl)sulfonyl)piperidin-4-yl)amino)-5-(trifluoromethyl)pyrimidin-4-yl)-1H-pyrazol-1-yl)cyclohexan-1-ol]
< 50	CS(=O)(=O)N1CCC(Nc2ncc(C#N)c(-c3cnn(-c4ccc(CN[C@H]5CC[C@@](C)(O)CC5)cc4Cl)c3)n2)CC1 [Example 173, 4-(1-(2-Chloro-4-((((1s,4s)-4-hydroxy-4-methylcyclohexyl)amino)methyl)phenyl)-1H-pyrazol-4-yl)-2-((1-(methylsulfonyl)piperidin-4-yl)amino)pyrimidine-5-carbonitrile]

Source: US11472791B2 (Incyte Corporation, priority 2019, dated 2022)
